Data taken from patent US10174035B2, “6-morpholinyl-2-pyrazolyl-9H-purine derivatives and their use as PI3K inhibitors” (Daiichi Sankyo Company, Limited, priority 2015, dated 2019).
Converted amounts (≈) assume the structure as drawn. Like-named read-outs stand apart in the source and are kept apart here.

Legend:
[1] = biological target: recombinant PI3K δ enzyme (Homo sapiens (Human), UniProt O00329); test: In vitro enzyme assay (Kinase-Glo luminescent kinase assay), PI3Kδ; type: biochemical
In short: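 Each recombinant human PI3K isoform at 2.29 μg/mL with 60 μM PIP2 and 10 μM ATP in HEPES pH 7.4, NaCl, CHAPS, MgCl2, DTT, 2 hours at room temperature. Remaining ATP read by Kinase-Glo luminescence relative to no-enzyme blanks.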

PI3Kα = PI3Kα (Homo sapiens (Human), UniProt P42336); test: In vitro enzyme assay (Kinase-Glo), selectivity, PI3Kα; type: biochemical; conditions: enzyme 2.29 μg/mL; ATP 10 μM; PIP2 60 μM; 2 hours
Sequence of PI3Kα (P42336 whole entry, species assumed): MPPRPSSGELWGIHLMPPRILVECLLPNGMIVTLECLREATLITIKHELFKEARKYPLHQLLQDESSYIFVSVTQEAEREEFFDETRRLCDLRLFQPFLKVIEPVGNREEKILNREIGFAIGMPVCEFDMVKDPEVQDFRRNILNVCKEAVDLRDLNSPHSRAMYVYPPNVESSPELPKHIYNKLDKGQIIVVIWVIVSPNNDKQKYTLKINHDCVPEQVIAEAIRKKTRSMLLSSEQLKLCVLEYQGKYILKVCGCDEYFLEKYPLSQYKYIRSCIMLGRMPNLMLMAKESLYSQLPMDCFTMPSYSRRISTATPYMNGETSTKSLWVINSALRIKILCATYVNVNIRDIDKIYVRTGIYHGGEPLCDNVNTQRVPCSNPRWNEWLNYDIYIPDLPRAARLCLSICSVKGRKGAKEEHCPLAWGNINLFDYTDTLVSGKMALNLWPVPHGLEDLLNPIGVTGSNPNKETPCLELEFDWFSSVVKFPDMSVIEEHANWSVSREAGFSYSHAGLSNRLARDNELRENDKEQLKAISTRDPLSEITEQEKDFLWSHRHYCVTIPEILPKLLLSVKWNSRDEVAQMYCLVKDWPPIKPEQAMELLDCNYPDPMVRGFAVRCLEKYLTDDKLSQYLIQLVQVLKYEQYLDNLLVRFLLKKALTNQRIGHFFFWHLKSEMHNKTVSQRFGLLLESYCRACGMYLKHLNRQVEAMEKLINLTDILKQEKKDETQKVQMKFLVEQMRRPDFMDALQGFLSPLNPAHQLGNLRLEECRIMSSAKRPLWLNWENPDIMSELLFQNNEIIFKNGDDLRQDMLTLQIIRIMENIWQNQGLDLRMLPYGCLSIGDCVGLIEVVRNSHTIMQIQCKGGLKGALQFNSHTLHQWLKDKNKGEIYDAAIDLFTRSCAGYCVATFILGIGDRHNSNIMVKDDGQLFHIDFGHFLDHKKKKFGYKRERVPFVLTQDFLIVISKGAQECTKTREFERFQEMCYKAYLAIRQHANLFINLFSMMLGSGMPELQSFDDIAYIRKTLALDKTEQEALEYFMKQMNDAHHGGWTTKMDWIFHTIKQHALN
Sequence of PI3Kα (P27986 whole entry partner, species assumed): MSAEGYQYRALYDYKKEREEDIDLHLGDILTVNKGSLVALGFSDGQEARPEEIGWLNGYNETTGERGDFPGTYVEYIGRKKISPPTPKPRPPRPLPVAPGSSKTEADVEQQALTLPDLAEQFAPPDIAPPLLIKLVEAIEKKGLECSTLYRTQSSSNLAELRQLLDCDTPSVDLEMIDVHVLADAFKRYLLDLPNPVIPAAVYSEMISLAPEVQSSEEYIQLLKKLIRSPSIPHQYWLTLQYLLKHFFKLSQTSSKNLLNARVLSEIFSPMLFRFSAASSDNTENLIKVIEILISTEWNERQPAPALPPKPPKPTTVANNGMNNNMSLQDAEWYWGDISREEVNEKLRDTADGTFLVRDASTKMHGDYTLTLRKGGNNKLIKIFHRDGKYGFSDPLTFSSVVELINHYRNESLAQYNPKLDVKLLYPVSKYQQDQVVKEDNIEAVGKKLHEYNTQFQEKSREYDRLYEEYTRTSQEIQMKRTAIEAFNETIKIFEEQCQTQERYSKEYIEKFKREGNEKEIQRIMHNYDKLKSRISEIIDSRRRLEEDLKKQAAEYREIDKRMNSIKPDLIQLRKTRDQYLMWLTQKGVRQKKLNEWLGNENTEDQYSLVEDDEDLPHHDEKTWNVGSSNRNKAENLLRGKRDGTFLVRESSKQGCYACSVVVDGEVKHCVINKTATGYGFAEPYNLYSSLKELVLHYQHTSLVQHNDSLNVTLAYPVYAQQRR
Method: (§1) The Kinase-Glo luminescent kinase assay kit (from Promega) was used to measure kinase activity. In this assay, amount of ATP remaining in solution following a kinase reaction is measured. The effect of compounds on PI3Kδ inhibition was carried out by adding 2.29 μg/ml of recombinant PI3K δ enzyme (Proteros, Germany) to reaction mixture containing assay buffer (50 mM HEPES, pH 7.4, 50 mM NaCl, 0.05% CHAPS) supplemented with 10 mM MgCl2, 5 mM DTT, 60 μM Phosphatidyl inositol bisphosphate (PIP2) and 10 μM ATP in the absence or presence of different concentrations of the compounds in a final volume of 15 μl/well, in a 384 well plate. The reaction mixture was incubated for 2 hours at room temperature. At the end of incubation period the equal volume of Kinase-Glo plus (Promega, V3772), was added per well and the luminescence was measured after incubating for 10 minutes at room temperature in dark. Results were calculated by measuring the luminescence units of test samples to blanks containing no enzyme.
(§2) The compounds of the present invention were tested for their selectivity for PI3Kδ over PI3Kα, PI3Kβ and PI3Kγ following the above assay using specific recombinant enzymes (Proteros, Germany) for each kinase. Assay condition of kinase assay (PI3Kα, PI3Kβ, PI3Kγ and PI3Kδ) was as follows. Enzyme: 2.29 μg/mL; ATP: 10 μM; PIP2 substrate: 60 μM and Reaction Time: 2 hours.

PI3Kβ = PI3Kβ (Homo sapiens (Human), UniProt P42338); test: In vitro enzyme assay (Kinase-Glo), selectivity, PI3Kβ; type: biochemical; conditions: enzyme 2.29 μg/mL; ATP 10 μM; PIP2 60 μM; 2 hours
Sequence of PI3Kβ (P42338 whole entry, species assumed): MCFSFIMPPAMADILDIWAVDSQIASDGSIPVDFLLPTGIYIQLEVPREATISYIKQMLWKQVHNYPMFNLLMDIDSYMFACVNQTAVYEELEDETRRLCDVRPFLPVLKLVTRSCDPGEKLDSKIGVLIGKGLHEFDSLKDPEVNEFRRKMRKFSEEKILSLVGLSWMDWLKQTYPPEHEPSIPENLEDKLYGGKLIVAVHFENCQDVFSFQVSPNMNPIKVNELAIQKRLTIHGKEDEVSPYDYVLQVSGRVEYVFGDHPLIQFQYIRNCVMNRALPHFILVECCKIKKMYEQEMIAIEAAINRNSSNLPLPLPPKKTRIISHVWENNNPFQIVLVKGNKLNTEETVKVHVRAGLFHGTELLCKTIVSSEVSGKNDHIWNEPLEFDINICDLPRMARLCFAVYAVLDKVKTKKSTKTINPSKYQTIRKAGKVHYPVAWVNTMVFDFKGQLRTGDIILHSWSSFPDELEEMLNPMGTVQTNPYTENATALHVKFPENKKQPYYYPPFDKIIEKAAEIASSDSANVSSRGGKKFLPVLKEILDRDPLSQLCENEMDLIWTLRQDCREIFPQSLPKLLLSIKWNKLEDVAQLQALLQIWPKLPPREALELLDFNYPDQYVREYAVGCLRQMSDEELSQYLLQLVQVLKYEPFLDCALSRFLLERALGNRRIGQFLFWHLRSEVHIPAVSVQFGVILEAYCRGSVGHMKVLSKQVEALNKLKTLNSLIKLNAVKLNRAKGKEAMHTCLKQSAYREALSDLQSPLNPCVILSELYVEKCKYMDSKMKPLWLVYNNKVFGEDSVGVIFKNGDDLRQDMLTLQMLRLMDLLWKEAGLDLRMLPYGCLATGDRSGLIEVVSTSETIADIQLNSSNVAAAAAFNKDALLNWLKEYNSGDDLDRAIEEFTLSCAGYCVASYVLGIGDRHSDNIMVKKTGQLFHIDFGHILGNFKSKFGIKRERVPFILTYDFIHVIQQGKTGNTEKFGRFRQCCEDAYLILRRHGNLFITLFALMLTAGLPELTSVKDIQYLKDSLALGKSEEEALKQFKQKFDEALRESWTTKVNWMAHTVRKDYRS
Sequence of PI3Kβ (P27986 whole entry partner, species assumed): as the sequence (P27986 whole entry partner, species assumed) above
Method: as §1, §2

PI3Kγ = PI3Kγ (Homo sapiens (Human), UniProt P48736); test: In vitro enzyme assay (Kinase-Glo), selectivity, PI3Kγ; type: biochemical; conditions: enzyme 2.29 μg/mL; ATP 10 μM; PIP2 60 μM; 2 hours
Sequence of PI3Kγ (P48736 whole entry, species assumed): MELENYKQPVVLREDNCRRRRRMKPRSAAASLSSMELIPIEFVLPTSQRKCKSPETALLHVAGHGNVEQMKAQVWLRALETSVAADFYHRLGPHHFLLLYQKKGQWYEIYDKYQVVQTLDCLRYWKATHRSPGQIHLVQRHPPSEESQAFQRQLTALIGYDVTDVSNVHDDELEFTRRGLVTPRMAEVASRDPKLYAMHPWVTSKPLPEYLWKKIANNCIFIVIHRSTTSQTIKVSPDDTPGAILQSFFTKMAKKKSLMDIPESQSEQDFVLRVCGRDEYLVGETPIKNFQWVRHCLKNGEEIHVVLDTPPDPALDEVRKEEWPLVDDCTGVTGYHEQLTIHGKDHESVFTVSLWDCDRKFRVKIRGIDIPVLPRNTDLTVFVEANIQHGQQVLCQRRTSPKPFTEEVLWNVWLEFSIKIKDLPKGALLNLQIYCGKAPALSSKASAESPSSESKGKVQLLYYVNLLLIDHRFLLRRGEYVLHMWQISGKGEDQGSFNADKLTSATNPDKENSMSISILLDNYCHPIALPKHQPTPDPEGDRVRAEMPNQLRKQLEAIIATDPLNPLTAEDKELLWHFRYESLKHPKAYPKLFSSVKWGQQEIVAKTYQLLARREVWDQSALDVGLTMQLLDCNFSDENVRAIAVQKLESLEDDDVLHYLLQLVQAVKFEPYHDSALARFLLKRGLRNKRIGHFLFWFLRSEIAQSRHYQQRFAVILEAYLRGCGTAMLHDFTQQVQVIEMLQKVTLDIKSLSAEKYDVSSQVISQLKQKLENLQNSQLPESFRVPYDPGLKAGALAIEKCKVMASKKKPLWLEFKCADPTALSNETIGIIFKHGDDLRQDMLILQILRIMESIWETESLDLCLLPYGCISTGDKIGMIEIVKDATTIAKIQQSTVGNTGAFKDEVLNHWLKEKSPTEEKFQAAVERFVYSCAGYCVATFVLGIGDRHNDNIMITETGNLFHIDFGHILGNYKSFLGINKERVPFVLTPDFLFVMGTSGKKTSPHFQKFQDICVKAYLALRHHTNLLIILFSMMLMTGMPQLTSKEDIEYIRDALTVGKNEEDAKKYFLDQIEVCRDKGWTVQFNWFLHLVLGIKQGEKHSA
Method: The Kinase-Glo luminescent kinase assay kit (from Promega) was used to measure kinase activity. In this assay, amount of ATP remaining in solution following a kinase reaction is measured. […] The reaction mixture was incubated for 2 hours at room temperature. At the end of incubation period the equal volume of Kinase-Glo plus (Promega, V3772), was added per well and the luminescence was measured after incubating for 10 minutes at room temperature in dark. Results were calculated by measuring the luminescence units of test samples to blanks containing no enzyme.
The compounds of the present invention were tested for their selectivity for PI3Kδ over PI3Kα, PI3Kβ and PI3Kγ following the above assay using specific recombinant enzymes (Proteros, Germany) for each kinase. Assay condition of kinase assay (PI3Kα, PI3Kβ, PI3Kγ and PI3Kδ) was as follows.

[2] = system: IFN-γ release in mouse splenocytes; test: Phytohaemagglutinin (PHA)-induced interferon (IFN)-gamma release in mouse splenocytes; parameters: species or system C57BL/6 mouse; conditions: Splenocyte, PHA (10 μg/ml) for 48 hours, IFN-γ by ELISA, read-out: Cell Based IC50
Method: Effect of compounds on mitogen-induced IFN-γ release in mouse splenocytes was used to evaluate their potency in cell-based assay system [Blood (2010) 115: 2203-2213; Current Protocols in Immunology (2004) 3.12.1-3.12.20].
Mouse splenocytes were obtained from the spleen of a C57BL/6 mouse and plated at a density of 0.25 million cells/well in a 96 well tissue culture plate. The effect of the compounds to inhibit IFN-γ release was evaluated by treating the splenocytes with various concentrations of the test compounds followed by stimulation with PHA (10 μg/ml) for 48 hours. The IFN-γ release in the cell culture supernatant was quantified by ELISA as per the manufacturer's protocol (BD Biosciences, #555138).

[3] = system: eosinophil count in bronchoalveolar lavage fluid; test: Ovalbumin-induced airway eosinophilia model in Brown Norway rats; type: in vivo; conditions: oral; for ED50: bid, absolute eosinophil count in BAL fluid; for Percent inhibition of BAL eosinophil count at 3 mg/kg: ovalbumin challenge
Method: The protocols were followed in similar fashion as described in Clin. Exp. Immunol., 2001; 126:9-15 and J. Pharmacol. Exp. Ther., 2011; 337:145-54. Male Brown Norway rats were sensitized by intraperitoneal injection of a suspension of 1 mg of ovalbumin and 100 mg of aluminum hydroxide (in sterile 0.9% saline) on day 0 and 7. On day 14, the compounds were administered to the rats by oral gavage. One hour after oral administration, the animals were placed into a perspex chamber and exposed to an aerosol of 5% ovalbumin for ten minutes. Compounds were administered on Day 14 and Day 15 either once or twice daily. Forty-eight hours after ovalbumin challenge, the animals were euthanized and bronchoalveolar lavage fluid was collected. The cell suspensions were processed and absolute eosinophil count was enumerated.

[4] = system: eosinophil count in bronchoalveolar lavage fluid; test: House dust mite (HDM) induced chronic asthma model in Balb/c mice; type: in vivo; conditions: oral twice daily from week 3 to week 5; absolute eosinophil count in BAL fluid
Method: The protocol was followed as described in Am. J. Respir. Crit. Care Med., 2004; 169: 378-385. Female Balb/c mice were exposed to purified HDM (Dermatophagoides pteronyssinus) extract, intranasally (25 μg of protein in 20 μl of saline) for 5 days/week for up to five consecutive weeks. Compounds were administered orally twice daily from week 3 to week 5. Forty-eight hours after last HDM exposure, the animals were euthanized and bronchoalveolar lavage fluid was collected. The cell suspensions were processed and absolute eosinophil count was enumerated.

[5] = Solubility in Japanese Pharmacopeia First Fluid (JP1) and Second Fluid (JP2); type: physicochemical; conditions: thermodynamic from solid, room temperature
Method: A 10 mmol/L solution of the test compound was prepared in DMSO and dispensed 100 μL of 10 mmol/L DMSO stock solutions into labeled glass tubes in duplicate, one for Japanese Pharmacopeia First Fluid (JP1) and second for Japanese Pharmacopeia Second Fluid (JP2). After evaporation of DMSO from each tube, 500 μL of JP1 and JP2 fluid were added in each tube, respectively. These tubes were sonicated for 1 minute and placed on shaker for 30 minutes with an interval of 30 seconds at every 5 minute. Tubes were placed in dark at room temperature for 1 hour and solution was filtered through membrane filter. The filtrate was diluted 2-fold and 10-fold. The resulting test solutions was analyzed and quantified against the standards using UPLC (standard preparation-10 mmol/L solution in DMSO is serially diluted with 50% aqueous acetonitrile solution to prepare 2 solutions; 100 μmol/L standard solution and 5 μmol/L standard solution).

[6] = enzyme 2.29 μg/mL, ATP 10 μM, PIP2 60 μM, 2 hours
[7] = pH 1.2, simulated gastric fluid, Japanese Pharmacopeia First Fluid (JP1), read-out: Solubility JP1
[8] = pH 6.8, aqueous buffer, Japanese Pharmacopeia Second Fluid (JP2), read-out: Solubility JP2

Sequence of recombinant PI3K δ enzyme (O00329 whole entry, species assumed, canonical isoform): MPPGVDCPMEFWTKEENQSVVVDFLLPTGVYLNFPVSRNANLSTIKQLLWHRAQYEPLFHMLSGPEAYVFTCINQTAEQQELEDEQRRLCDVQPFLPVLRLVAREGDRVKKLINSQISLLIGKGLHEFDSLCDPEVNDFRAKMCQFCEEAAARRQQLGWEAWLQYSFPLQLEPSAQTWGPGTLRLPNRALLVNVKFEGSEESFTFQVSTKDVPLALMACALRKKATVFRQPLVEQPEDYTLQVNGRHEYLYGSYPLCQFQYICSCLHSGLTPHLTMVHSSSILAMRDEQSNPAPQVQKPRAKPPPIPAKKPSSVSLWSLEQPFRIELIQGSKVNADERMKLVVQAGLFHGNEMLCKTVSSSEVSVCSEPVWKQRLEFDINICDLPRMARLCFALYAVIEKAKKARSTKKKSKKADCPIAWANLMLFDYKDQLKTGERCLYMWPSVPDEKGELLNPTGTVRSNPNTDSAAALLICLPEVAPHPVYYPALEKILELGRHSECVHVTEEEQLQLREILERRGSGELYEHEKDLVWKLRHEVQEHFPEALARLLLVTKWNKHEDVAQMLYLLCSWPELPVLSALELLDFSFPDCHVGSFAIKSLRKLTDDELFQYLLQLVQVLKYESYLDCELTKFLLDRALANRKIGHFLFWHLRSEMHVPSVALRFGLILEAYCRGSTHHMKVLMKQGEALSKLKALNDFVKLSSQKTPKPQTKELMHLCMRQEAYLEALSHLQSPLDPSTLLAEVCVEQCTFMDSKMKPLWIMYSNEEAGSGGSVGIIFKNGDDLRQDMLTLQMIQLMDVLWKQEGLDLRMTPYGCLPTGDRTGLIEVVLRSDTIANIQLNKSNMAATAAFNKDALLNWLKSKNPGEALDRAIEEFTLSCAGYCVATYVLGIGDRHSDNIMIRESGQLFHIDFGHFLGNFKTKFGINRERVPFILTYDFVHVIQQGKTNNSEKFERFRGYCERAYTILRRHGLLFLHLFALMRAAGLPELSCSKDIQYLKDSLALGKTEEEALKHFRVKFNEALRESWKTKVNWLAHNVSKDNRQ
Sequence of recombinant PI3K δ enzyme (P27986 whole entry partner, species assumed, canonical isoform): as the sequence (P27986 whole entry partner, species assumed) above

IC50 [1] [nM] | IC50 [1, 6] [nM] | IC50 (PI3Kα) [nM] | IC50 (PI3Kβ) [nM] | IC50 (PI3Kγ) [nM] | IC50 [2] [nM] | solubility at 30 min [5, 7] [µg/mL] | solubility at 30 min [5, 8] [µg/mL] | Structure (SMILES) | ED50 [3] | ED50 [4] | Percent inhibition of BAL eosinophil count at 3 mg/kg [3] [%]
14 | 14 | > 1000 | > 10000 | > 1000 | 6 | > 1200 | 170 (≈ 353 µM) | Cn1cc(-c2nc(N3CCOCC3)c3nc(C(=O)N4CCC(N5CCOCC5)CC4)[nH]c3n2)cn1 [Compound No. 58, [2-(1-methyl-1H-pyrazol-4-yl)-6-(morpholin-4-yl)-9H-purin-8-yl][4-(morpholin-4-yl)piperidin-1-yl]methanone] | 0.3 mg/kg, bid | 0.1 mg/Kg, bid | 
 |  | > 1000 |  | 1180 | 111 | 834 (≈ 1640 µM) | 286 (≈ 561 µM) | C[C@@H]1CN(C2CCN(C(=O)c3nc4c(N5CCOCC5)nc(-c5cnn(C)c5)nc4[nH]3)CC2)C[C@H](C)O1 [compound 5, {4-[cis-2,6-Dimethylmorpholin-4-yl]piperidin-1-yl}[2-(1-methyl-1H-pyrazol-4-yl)-6-(morpholin-4-yl)-9H-purin-8-yl]methanone] |  | 1.6 mg/Kg, bid | 
13 | 13 | 2190 | > 10000 | 640 | 28 |  |  | Cn1cc(-c2cc(N3CCOCC3)c3nc(C(=O)N4CCC5(CC4)COC5)[nH]c3n2)cn1 [compound 78, [5-(1-Methyl-1H-pyrazol-4-yl)-7-(morpholin-4-yl)-3H-imidazo[4,5-b]pyridin-2-yl](2-oxa-7-azaspiro[3.5]non-7-yl)methanone] |  |  | 45
5 |  |  |  |  |  |  |  | Cc1nn(C)cc1-c1nc2[nH]c(C(=O)N3CCC(C(C)(C)O)CC3)nc2c(N2CCOCC2)c1F [compound 84, [5-(1,3-Dimethyl-1H-pyrazol-4-yl)-6-fluoro-7-(morpholin-4-yl)-3H-imidazo[4,5-b]pyridin-2-yl][4-(2-hydroxypropan-2-yl)piperidin-1-yl]methanone] |  |  | 26
3 |  |  |  |  |  | > 1020 | 424 (≈ 827 µM) | Cc1nn(C)cc1-c1nc2[nH]c(C(=O)N3CCC(N4CCOCC4)CC3)nc2c(N2CCOCC2)c1F [compound 96, [5-(1,3-Dimethyl-1H-pyrazol-4-yl)-6-fluoro-7-(morpholin-4-yl)-3H-imidazo[4,5-b]pyridin-2-yl][4-(morpholin-4-yl)piperidin-1-yl]methanone] | 2.5 mg/kg, bid |  | 
3 | 3 | 1080 | > 10000 | 961 | 183 | > 936 | > 923 | Cc1nn(C)cc1-c1nc2[nH]c(C(=O)N3CCC(N(C)C)CC3)nc2c(N2CCOCC2)c1F [compound 97, [4-(Dimethylamino)piperidin-1-yl][5-(1,3-dimethyl-1H-pyrazol-4-yl)-6-fluoro-7-(morpholin-4-yl)-3H-imidazo[4,5-b]pyridin-2-yl]methanone] |  |  | 

The remaining lines, values behind:

Structure (SMILES) | IC50 [1] [nM] | IC50 [1, 6] [nM] | IC50 (PI3Kα) [nM] | IC50 (PI3Kβ) [nM] | IC50 (PI3Kγ) [nM] | IC50 [2] [nM] | solubility at 30 min [5, 7] [µg/mL] | solubility at 30 min [5, 8] [µg/mL] | ED50 [3] | ED50 [4] | Percent inhibition of BAL eosinophil count at 3 mg/kg [3] [%]
Cn1cc(-c2nc(N3CCOCC3)c3nc(C(=O)N4CCC5(CC4)COC5)[nH]c3n2)cn1 [compound 3, [2-(1-Methyl-1H-pyrazol-4-yl)-6-(morpholin-4-yl)-9H-purin-8-yl](2-oxa-7-azaspiro[3.5]non-7-yl)methanone] | 15 | 15 | > 1000 | > 10000 | > 1000 | 55 |  |  |  |  | 46
Cc1nn(C)cc1-c1nc2c(nc(C(=O)N3CCC(N4CCOCC4)CC3)n2C)c(N2CCOCC2)c1F [compound 87, [5-(1,3-Dimethyl-1H-pyrazol-4-yl)-6-fluoro-3-methyl-7-(morpholin-4-yl)-3H-imidazo[4,5-b]pyridin-2-yl][4-(morpholin-4-yl)piperidin-1-yl]methanone] | 3 | 3 | > 10000 | > 10000 | > 10000 | 47 |  |  | 0.8 mg/kg, bid |  | 
Cc1nn(C)cc1-c1cc(N2CCOCC2)c2nc(C(=O)N3CCC(N4CCOCC4)CC3)[nH]c2n1 [compound 94, [5-(1,3-Dimethyl-1H-pyrazol-4-yl)-7-(morpholin-4-yl)-3H-imidazo[4,5-b]pyridin-2-yl][4-(morpholin-4-yl)piperidin-1-yl]methanone] | 4 | 4 | 971 | 9910 | 3030 | 11 | 808 (≈ 1630 µM) | 754 (≈ 1520 µM) |  |  | 
CN(C)C1CCN(C(=O)c2nc3c(N4CCOCC4)c(F)c(-c4cnn(C)c4)nc3[nH]2)CC1 [compound 99, [4-(Dimethylamino)piperidin-1-yl][6-fluoro-5-(1-methyl-1H-pyrazol-4-yl)-7-(morpholin-4-yl)-3H-imidazo[4,5-b]pyridin-2-yl]methanone] | 29 |  |  |  |  |  | 816 (≈ 1790 µM) | 321 (≈ 703 µM) |  |  | 
Cn1cc(-c2cc(N3CCOCC3)c3nc(C(=O)N4CCC(N5CCOCC5)CC4)[nH]c3n2)cn1 [compound 102, [5-(1-Methyl-1H-pyrazol-4-yl)-7-(morpholin-4-yl)-3H-imidazo[4,5-b]pyridin-2-yl][4-(morpholin-4-yl)piperidin-1-yl]methanone] | 19 |  |  |  |  |  | 932 (≈ 1940 µM) | 560 (≈ 1170 µM) |  |  | 
